{"source": "paper PMC2936744", "about": "(PLoS Pathogens, 2010)", "key": {"HCVcc-1a/2a-Rluc": {"tested_on": "HCVcc-1a/2a-Rluc", "format": "cell-based, hepatitis C virus", "settings": "mean of 8 independent experiments"}, "[1]": {"format": "cell-based", "settings": "human, Huh-7.5 cells"}, "HIV": {"tested_on": "HIV", "assay": "microbe, parasite or virus in culture", "settings": "Human immunodeficiency virus 1, MT2, read-out: EC50 HIV", "method": "(§1) BVDV cell protection assays were performed essentially as described [54] by infecting MDBK cells with 0.1 pfu/cell of BVDV strain NADL. Infected cells were incubated at 37°C for 3 days and virus-induced cytopathicity was measured using the Cell Titer-Glo reagent (Promega). HIV assays were performed as described [55] by infecting MT2 cells with 0.05 pfu/cell of the NL4-3 strain of HIV (NIH Research and Reference Reagent Program) containing the Renilla luciferase gene (NL-Rluc) in the Nef locus. Infected cells were incubated at 37°C for 5 days and virus replication was measured by reverse transcriptase assay using a scintillation proximity assay as described [55]."}, "in vitro [2]": {"assay": "in vitro", "settings": "bovine", "method": "(§2) In addition, compound-induced cytotoxicity in each cell line used for the infection assays was measured."}, "HCVcc-2a/2a-Rluc": {"tested_on": "HCVcc-2a/2a-Rluc", "format": "cell-based"}, "in vitro [3]": {"assay": "in vitro", "settings": "human", "method": "as §2"}, "in vitro [4]": {"assay": "in vitro", "settings": "dog", "method": "as §2"}, "HCVcc-1a/2a": {"tested_on": "HCVcc-1a/2a", "settings": "0.5 µM EI-1 in agarose overlay", "method": "An assay incorporating a semisolid medium was used to access cell-to-cell spread as described [57]. HCVcc-1a/c2a was added to 1.6×10^4 Huh-7.5 cells at 0.001 ffu/cell incubated at 37°C. […] Cells were incubated at 37°C for 2, 3 or 4 days at which time the agarose was removed and the infected cells were detected using indirect immunofluorescence for the HCV core protein as described above. The mean number of infected cells/ffu was determined from ≥100 foci for each data point."}, "VSVpp": {"tested_on": "VSVpp", "assay": "microbe, parasite or virus in culture", "format": "cell-based", "settings": "Vesicular stomatitis virus, Huh-H1, read-out: EC50 VSVpp"}, "BVDV": {"tested_on": "BVDV", "assay": "microbe, parasite or virus in culture", "settings": "Bovine viral diarrhea virus isolates and strains, read-out: EC50 BVDV", "method": "as §1"}, "HCVcc-1b/2a": {"tested_on": "HCVcc-1b/2a", "format": "cell-based, hepatitis C virus"}, "HCVpp-1b": {"tested_on": "HCVpp-1b", "assay": "Inhibitor time-of-addition / attachment vs post-attachment assay, Huh-H1 cells", "method": "Huh-H1 cells were seeded at 5×10^3 cells/well in 96-well plates. The following day the plates were chilled to 4°C and the media was removed and replaced with HCVpp inoculum in a volume of 50 µl. Plates were incubated at 4°C for 1.5 hr on a rocking platform. The inoculum was removed and unbound virus was removed by 2 washes with 4°C media. Fresh media was added and the plates were shifted to a 37°C incubator. […] At 3 days post infection, firefly luciferase activity was quantified using the Steady-Glo Reagent (Promega) according to the manufacturer's instructions. Experiments were done in triplicate and the mean % inhibition was calculated relative to control infections lacking inhibitor."}, "HCV entry": {"tested_on": "HCV entry", "format": "cell-based, hepatitis C virus"}}, "note": "Read-outs that look alike come from different tables or passages of the source.", "data": [{"smiles": "C=C[C@@H]1C[C@]1(NC(=O)[C@@H]1C[C@@H](Oc2nccc3cc(OC)ccc23)CN1C(=O)[C@@H](NC(=O)OC(C)(C)C)C(C)(C)C)C(=O)NS(=O)(=O)C1CC1", "note": "[BMS-605339]", "values": [{"measurement": "EC50", "setting": "HCVcc-1a/2a-Rluc", "result": 0.123, "unit": "µM"}]}, {"smiles": "CCCCCNc1nc(Nc2ccc([N+](=O)[O-])cc2)nc(OCC(F)(F)F)n1", "note": "[EI-1, N ^2-(4-nitrophenyl)-N ^4-pentyl-6-(2,2,2-trifluoroethoxy)-1,3,5-triazine-2,4-diamine]", "values": [{"measurement": "CC50", "setting": "[1]", "result": "> 50", "unit": "µM"}, {"measurement": "EC50", "setting": "HIV", "result": 23.4, "unit": "µM"}, {"measurement": "CC50", "setting": "in vitro [2]", "result": "> 50", "unit": "µM"}, {"measurement": "activity against genotype 2a/2a chimeric virus (in words)", "setting": "HCVcc-2a/2a-Rluc", "result": "not active"}, {"measurement": "CC50", "setting": "in vitro [3]", "result": "> 50", "unit": "µM"}, {"measurement": "CC50", "setting": "in vitro [4]", "result": "> 50", "unit": "µM"}, {"measurement": "cell-to-cell transmission (in words)", "setting": "HCVcc-1a/2a", "result": "abrogated"}, {"measurement": "EC50", "setting": "VSVpp", "result": 33, "unit": "µM"}, {"measurement": "EC50", "setting": "BVDV", "result": "> 50", "unit": "µM"}, {"measurement": "progeny virus release, inhibitor present during entry (in words)", "setting": "HCVcc-1b/2a", "result": "dose-dependent reduction"}, {"measurement": "virus release, inhibitor added 5 hours post infection (post entry; in words)", "setting": "HCVcc-1b/2a", "result": "did not affect the levels of virion particles or infectious virus produced"}, {"measurement": "effect on the attachment of HCVpp to HSPGs (inhibitor during 4°C step only; in words)", "setting": "HCVpp-1b; 0.125 µM EI-1", "result": "little effect"}, {"measurement": "time of infection within which inhibition is exerted", "setting": "HCVpp-1b; 0.125 µM EI-1 added at intervals after 37°C shift", "result": "≤ 3", "unit": "h"}, {"measurement": "inhibition at 0.125 µM", "setting": "HCVpp-1b; Hepatitis C virus, Huh-H1, read-out: inhibition when inhibitor present during the 37°C phase only (post-attachment)", "result": "> 90", "unit": "%"}]}, {"smiles": "COC(=O)N[C@H](C(=O)N1CCC[C@H]1c1nc(-c2ccc(-c3ccc(-c4c[nH]c([C@@H]5CCCN5C(=O)[C@@H](NC(=O)OC)C(C)C)n4)cc3)cc2)c[nH]1)C(C)C", "note": "[BMS-790052, reference compound]", "values": [{"measurement": "virus release, inhibitor added 5 hours post infection (post entry; in words)", "setting": "HCVcc-1b/2a", "result": "prevented virus release"}]}, {"smiles": "CCCCCCCCO[C@@H]1O[C@H](CO)[C@@H](O)[C@H](O)[C@H]1O", "note": "[β-OG, n-octyl-β-D-glucoside]", "values": [{"measurement": "inhibition of HCV entry (in words)", "setting": "HCV entry", "result": "did not inhibit"}]}, {"smiles": "CO/C1=C\\C(C)=C\\[C@@H](C)[C@@H](O)[C@@H](C)C/C(C)=C/C=C/[C@H](OC)[C@@H]([C@@H](C)[C@@H](O)[C@H](C)[C@@]2(O)C[C@@H](O)[C@H](C)[C@@H](C(C)C)O2)OC1=O", "note": "[bafilomycin, bafilomycin A1, reference compound]", "values": [{"measurement": "time after the 37°C temperature shift at which sensitivity to the inhibitor was lost", "setting": "HCVpp-1b; 10 nM bafilomycin A1", "result": "≥ 3", "unit": "h"}, {"measurement": "stage of entry at which the control inhibitor is effective (in words)", "setting": "HCVpp-1b; heparin 200 µg/ml, anti-CD81 monoclonal antibody 2 µg/ml, bafilomycin A1 10 nM", "result": "only effective during the post-attachment stage"}]}]}
